Reference: ChEMBL document CHEMBL5042497, “Design, synthesis, and biological evaluation of carbamate derivatives of N-salicyloyl tryptamine as multifunctional agents for the treatment of Alzheimer's disease” (Eur J Med Chem, 2022)
Activity calls are given as the source filed them. The calls are words filed in the database; no cut-off is given here.

Columns and labels:
[1] = Acute toxicity in Sprague-Dawley rat assessed as abnormality in living off at 2000 mg/kg, IG administered as single dose measured after 14 days; type: organism-based; conditions: in vivo, po, 336 h, time 14 day
Acetylcholinesterase [2] = molecular target: T1, Acetylcholinesterase (Electrophorus electricus, UniProt O42275); assay: Inhibition of electric eel AChE using acetylthiocholine iodide as substrate preincubated for 10 mins followed by substrate addition and measured for 15 mins by Ellman's method
[3] = molecular target: Amyloid-beta precursor protein (Homo sapiens) (UniProt P05067); assay: Inhibition of amyloid beta (1 to 42 ) (unknown origin) aggregation at 20 umol/L incubated for 24 hrs by thioflavin-T fluorescence method relative to control; conditions: dose 20.0 µmol/L
[4] = MRT(0 to t) in Sprague-Dawley rat at 100 mg/kg, po measured upto 24 hrs by LC-MS analysis; type: ADME, organism-based; conditions: in vivo
Cholinesterase [5] = molecular target: T2, Cholinesterase (Equus caballus, UniProt P81908); assay: Inhibition of equine serum BChE using butyrylthiocholine iodide as substrate assessed as inhibition constant at 0.78 to 12.5 uM preincubated for 10 mins followed by substrate addition and measured after 15 mins by Lineweaver-Burk plot analysis
in vivo = conditions: Sprague-Dawley, rat, brain/plasma, 100 mg/kg
Description: Ratio of drug concentration in brain to plasma in Sprague-Dawley rat at 100 mg/kg measured at 10 mins by LC-MS analysis

BV-2 [6] = assay: Effect of compound on LPS- induced iNOS production in mouse BV-2 cells incubated for 24 hrs by western blot analysis; type: functional, cell-based; conditions: dose 6.25-25 µM
Mus musculus [7] = assay: Anti-alzheimer activity against scopolamine-induced cognitive dysfunction mouse model assessed as decrease in swimming distance at 100 mg/kg, po dosed for 10 days and measured after 30 mins on day 11 by Morris water maze test; type: functional, organism-based; conditions: time 10.0 day
Mus musculus [8] = assay: Anti-alzheimer activity against scopolamine-induced cognitive dysfunction mouse model assessed as change in neuron damage in hippocampal CA1 region at 50 to 100 mg/kg, po measured after 10 days by Nissl staining based assay; type: functional, organism-based; conditions: Hippocampus, dose 50-100 mg/kg, time 10.0 day
[9] = Acute toxicity in Sprague-Dawley rat assessed as histological changes in liver at 2000 mg/kg, IG administered as single dose measured after 14 days by H and E staining based analysis; type: organism-based; conditions: in vivo, po, 336 h, time 14 day
[10] = Acute toxicity in Sprague-Dawley rat assessed as histological changes in brain at 2000 mg/kg, IG administered as single dose measured after 14 days by H and E staining based analysis; type: organism-based; conditions: in vivo, po, 336 h, time 14 day
Cholinesterase [11] = molecular target: T2, Cholinesterase; assay: Inhibition of equine serum BChE using butyrylthiocholine iodide as substrate preincubated for 10 mins followed by substrate addition and measured after 15 mins by Ellman's method
[12] = Acute toxicity in Sprague-Dawley rat assessed as histological changes in spleen at 2000 mg/kg, IG administered as single dose measured after 14 days by H and E staining based analysis; type: organism-based; conditions: in vivo, po, 336 h, time 14 day
[13] = Acute toxicity in Sprague-Dawley rat assessed as histological changes in heart at 2000 mg/kg, IG administered as single dose measured after 14 days by H and E staining based analysis; type: organism-based; conditions: in vivo, po, 336 h, time 14 day
Mus musculus [14] = assay: Anti-alzheimer activity against scopolamine-induced cognitive dysfunction mouse model assessed as increase in rate of time spend in central and peripheral area at 50 to 100 mg/kg,po dosed for 10 days and measured after 30 mins on day 11 by open field test; type: functional, organism-based; conditions: dose 50-100 mg/kg, time 10.0 day
[15] = Acute toxicity in Sprague-Dawley rat assessed as abnormality in body weight at 2000 mg/kg, IG administered as single dose measured after 14 days; type: organism-based; conditions: in vivo, po, 336 h, time 14 day
BV-2 [16] = assay: Anti-neuroinflammation in mouse BV-2 cells assessed as inhibition of LPS-induced NO production at 100 to 3.125 umol/L measured after 24 hrs by Griess method; type: functional, cell-based; conditions: dose 100-3.125 µmol/L
[17] = Acute toxicity in Sprague-Dawley rat assessed as behavioral abnormality at 2000 mg/kg, IG administered as single dose measured after 14 days; type: organism-based; conditions: in vivo, po, 336 h, time 14 day
BV-2 [18] = assay: Anti-neuroinflammation in mouse BV-2 cells assessed as decrease in LPS-induced iNOS activity at 6.25 to 25 umol/L by fluorescence based assay; type: functional, cell-based; conditions: dose 6.25-25 µmol/L
BV-2 [19] = assay: Anti-neuroinflammation in mouse BV-2 cells assessed as decrease in LPS-induced IL-6 production at 6.25 to 25 umol/L measured after 24 hrs by ELISA; type: functional, cell-based; conditions: dose 6.25-25 µmol/L
[20] = Tmax in Sprague-Dawley rat at 100 mg/kg, po measured upto 24 hrs by LC-MS analysis; type: ADME, organism-based; conditions: in vivo
[21] = Half life in Sprague-Dawley rat at 100 mg/kg, po measured upto 24 hrs by LC-MS analysis; type: ADME, organism-based; conditions: in vivo
Mus musculus [22] = assay: Anti-alzheimer activity against scopolamine-induced cognitive dysfunction mouse model assessed as change in neuron damage in hippocampal CA3 region at 50 to 100 mg/kg, po measured after 10 days by Nissl staining based assay; type: functional, organism-based; conditions: Hippocampus, dose 50-100 mg/kg, time 10.0 day
BV-2 [23] = assay: Anti-neuroinflammation in mouse BV-2 cells assessed as increase in LPS-induced IL-4 production measured after 24 hrs by ELISA; type: functional, cell-based; conditions: dose 6.25-25 µmol/L
[24] = AUC (0 to t) in Sprague-Dawley rat at 100 mg/kg, po measured upto 24 hrs by LC-MS analysis; type: ADME, organism-based; design: route oral, dose 100 mg/kg, time <=24; conditions: in vivo
Mus musculus [25] = assay: Anti-alzheimer activity against scopolamine-induced cognitive dysfunction mouse model assessed as […] of AChE activity in hippocampus at 50 to 100 mg/kg, po dosed for 10 days by colorimetric analysis; type: functional, organism-based; conditions: dose 50-100 mg/kg, time 10.0 day
Acetylcholinesterase [26] = molecular target: T1, Acetylcholinesterase; assay: Inhibition of electric eel AChE using acetylthiocholine iodide as substrate assessed as inhibition constant at 0.78 to 12.5 uM preincubated for 10 mins followed by substrate addition and measured for 15 mins by Lineweaver-Burk plot analysis
BV-2 [27] = assay: cells; type: functional, cell-based; conditions: Mus musculus, BV-2, 24 h
Description: Cytotoxicity against mouse BV-2 cells assessed as reduction in cell viability measured after 24 hrs by MTT assay

[28] = Acute toxicity in Sprague-Dawley rat assessed as lethal dose administered intragastrically as single dose measured after 14 days; conditions: in vivo, po, time 14 day
BV-2 [29] = assay: Effect of compound on LPS- induced ROS production in mouse BV-2 cells at 6.25 to 25 uM by microscopic analysis; type: functional, cell-based; conditions: dose 6.25-25 µM
BV-2 [30] = assay: Anti-neuroinflammation in mouse BV-2 cells assessed as decrease in LPS-induced TNF-alpha production at 6.25 to 25 umol/L measured after 24 hrs by ELISA; type: functional, cell-based; conditions: dose 6.25-25 µmol/L
[31] = Acute toxicity in Sprague-Dawley rat assessed as abnormality in diet at 2000 mg/kg, IG administered as single dose measured after 14 days; type: organism-based; conditions: in vivo, po, 336 h, time 14 day
HT-22 = assay: cells; type: functional, cell-based; conditions: Mus musculus, HT-22, 24 h
Description: Cytotoxicity against mouse HT-22 cells assessed as reduction in cell viability measured after 24 hrs by MTT assay

[32] = Cmax in Sprague-Dawley rat at 100 mg/kg, po measured upto 24 hrs by LC-MS analysis; type: ADME, organism-based; design: route oral, dose 100 mg/kg, time <=24; conditions: in vivo
Mus musculus [33] = assay: Anti-alzheimer activity against scopolamine-induced cognitive dysfunction mouse model assessed as increase in movement distance in central and peripheral area at 50 to 100 mg/kg,po dosed for 10 days and measured after 30 mins on day 11 by open field test; type: functional, organism-based; conditions: dose 50-100 mg/kg, time 10.0 day

T2 sequence (P81908 whole entry): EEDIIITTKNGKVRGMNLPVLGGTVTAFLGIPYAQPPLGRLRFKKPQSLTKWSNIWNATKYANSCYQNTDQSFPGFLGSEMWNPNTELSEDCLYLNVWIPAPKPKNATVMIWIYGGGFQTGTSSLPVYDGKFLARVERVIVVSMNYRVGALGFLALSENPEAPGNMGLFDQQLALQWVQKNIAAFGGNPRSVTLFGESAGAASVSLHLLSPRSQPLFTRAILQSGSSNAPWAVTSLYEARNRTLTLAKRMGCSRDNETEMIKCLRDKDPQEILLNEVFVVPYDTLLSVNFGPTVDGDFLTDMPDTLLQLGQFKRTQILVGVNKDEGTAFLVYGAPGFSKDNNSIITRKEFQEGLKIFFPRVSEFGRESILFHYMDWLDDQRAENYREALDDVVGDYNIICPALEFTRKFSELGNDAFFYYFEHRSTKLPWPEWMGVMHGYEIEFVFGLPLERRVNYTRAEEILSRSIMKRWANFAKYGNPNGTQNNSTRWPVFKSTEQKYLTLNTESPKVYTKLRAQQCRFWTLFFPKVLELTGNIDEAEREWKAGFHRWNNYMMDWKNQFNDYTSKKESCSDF
T1 sequence (O42275 whole entry): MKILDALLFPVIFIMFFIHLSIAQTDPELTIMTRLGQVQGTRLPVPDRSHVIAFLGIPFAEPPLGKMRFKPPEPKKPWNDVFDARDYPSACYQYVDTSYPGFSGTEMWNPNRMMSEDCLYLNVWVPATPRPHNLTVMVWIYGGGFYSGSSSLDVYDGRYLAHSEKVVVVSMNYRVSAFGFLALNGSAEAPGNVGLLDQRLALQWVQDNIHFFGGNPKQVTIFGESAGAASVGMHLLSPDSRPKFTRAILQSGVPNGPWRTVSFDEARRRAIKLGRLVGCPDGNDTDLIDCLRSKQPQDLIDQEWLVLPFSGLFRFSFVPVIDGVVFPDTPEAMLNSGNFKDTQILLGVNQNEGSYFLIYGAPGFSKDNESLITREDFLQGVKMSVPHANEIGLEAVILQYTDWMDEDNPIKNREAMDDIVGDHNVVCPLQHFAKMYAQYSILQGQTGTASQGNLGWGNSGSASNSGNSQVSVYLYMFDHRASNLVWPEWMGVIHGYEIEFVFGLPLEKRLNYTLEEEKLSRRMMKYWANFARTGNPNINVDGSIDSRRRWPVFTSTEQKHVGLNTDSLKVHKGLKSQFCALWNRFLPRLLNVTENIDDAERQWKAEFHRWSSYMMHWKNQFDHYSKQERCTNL
Amyloid-beta precursor protein (Homo sapiens), sequence (P05067 whole entry): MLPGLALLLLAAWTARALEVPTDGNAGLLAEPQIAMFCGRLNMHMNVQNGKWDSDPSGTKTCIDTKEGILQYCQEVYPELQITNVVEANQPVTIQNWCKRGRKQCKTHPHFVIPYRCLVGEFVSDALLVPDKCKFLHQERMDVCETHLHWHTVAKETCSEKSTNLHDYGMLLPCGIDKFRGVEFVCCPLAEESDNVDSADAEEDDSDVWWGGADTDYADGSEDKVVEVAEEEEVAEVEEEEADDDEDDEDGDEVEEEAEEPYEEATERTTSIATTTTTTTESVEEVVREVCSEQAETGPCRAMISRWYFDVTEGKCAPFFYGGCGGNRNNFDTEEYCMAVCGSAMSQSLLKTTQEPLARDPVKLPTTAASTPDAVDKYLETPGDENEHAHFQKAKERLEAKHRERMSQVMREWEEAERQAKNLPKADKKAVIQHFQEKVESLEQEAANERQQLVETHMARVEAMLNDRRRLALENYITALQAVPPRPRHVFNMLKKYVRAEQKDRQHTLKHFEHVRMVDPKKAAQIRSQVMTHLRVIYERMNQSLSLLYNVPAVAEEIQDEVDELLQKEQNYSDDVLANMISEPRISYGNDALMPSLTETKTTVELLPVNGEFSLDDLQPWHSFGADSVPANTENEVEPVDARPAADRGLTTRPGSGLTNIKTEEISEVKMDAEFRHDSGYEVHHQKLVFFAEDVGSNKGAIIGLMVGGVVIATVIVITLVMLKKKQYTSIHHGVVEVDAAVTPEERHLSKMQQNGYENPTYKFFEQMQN

Which Activity [1] does the source give for `CON(C)C(=O)Oc1ccccc1C(=O)NCCc1c[nH]c2ccccc12` here?
The Activity was “Non-Toxic”.

What about the IC50 (Acetylcholinesterase [2]) of the same compound?
Its IC50 is 3.24 µM.

And the inhibition [3]?
Its inhibition is 40.3%.

And the MRT last at 24 h [4]?
The MRT last at 24 h was 4.89 h.

And the Ki (Cholinesterase [5])?
Its Ki is 0.892 µM.

And the Kp at 10 min (in vivo)?
The Kp at 10 min was 15.7.

What about the Activity (BV-2 [6]) of the same compound?
The Activity was “Dose-Dependent Effect”.

And the Activity (Mus musculus [7])?
The Activity was “Active”.

And the Activity (Mus musculus [8])?
The Activity was “Active”.

And the Activity [9]?
The Activity was “Non-Toxic”.

And the Activity [10]?
Its Activity is “Non-Toxic”.

And the IC50 (Cholinesterase [11])?
The IC50 was 1.84 µM.

And the Activity [12]?
Its Activity is “Non-Toxic”.

What about the Activity [13] of the same compound?
The Activity was “Non-Toxic”.

And the Activity (Mus musculus [14])?
The Activity was “Dose-Dependent Effect”.

What about the Activity [15] of the same compound?
The Activity was “Non-Toxic”.

And the Activity (BV-2 [16])?
The Activity was “Active”.

And the Activity [17]?
Its Activity is “Non-Toxic”.

And the Activity (BV-2 [18])?
Its Activity is “Active”.

What about the Activity (BV-2 [19]) of the same compound?
The Activity was “Active”.

And the Tmax [20]?
The Tmax was 4.8 min.

And the half-life [21]?
Its half-life is 5.34 h.

And the Activity (Mus musculus [22])?
The Activity was “Active”.

What about the Activity (BV-2 [23]) of the same compound?
The Activity was “Dose-Dependent Effect”.

What about the AUC(0-t) at 24 h [24] of the same compound?
The AUC(0-t) at 24 h was 3900 ng·h/mL.

What about the Activity (Mus musculus [25]) of the same compound?
The Activity was “Active”.

What about the Ki (Acetylcholinesterase [26]) of the same compound?
Its Ki is 1.6 µM.

What about the IC50 (BV-2 [27]) of the same compound?
Its IC50 is 197 µM.

What about the LD50 at 336 h [28] of the same compound?
Its LD50 at 336 h is over 2000 mg/kg.

And the Activity (BV-2 [29])?
Its Activity is “Active”.

And the Activity (BV-2 [30])?
The Activity was “Active”.

What about the Activity [31] of the same compound?
Its Activity is “Non-Toxic”.

And the IC50 (HT-22)?
Its IC50 is 140 µM.

What about the Cmax [32] of the same compound?
Its Cmax is 3030 ng/mL.

What about the Activity (Mus musculus [33]) of the same compound?
The Activity was “Dose-Dependent Effect”.
